Measured values taken from ChEMBL document CHEMBL1146305, “Synthesis of pyochelin-norfloxacin conjugates” (Bioorg Med Chem Lett, 2007).
The source made the active and inactive calls. The rule behind the calls is not given here.

Test system: Pseudomonas aeruginosa
Assay: Antibacterial activity against Pseudomonas aeruginosa PAO1
Type: functional, organism-based

## CCn1cc(C(=O)O)c(=O)c2cc(F)c(N3CCN(C(=O)OCOC(=O)CCC(=O)NCC#Cc4ccc(O)c(C5=NC(C6SCC(C(=O)O)N6C)CS5)c4)CC3)cc21 (configuration not stated)
  Activity: Active

## CCn1cc(C(=O)O)c(=O)c2cc(F)c(N3CCN(C(=O)OCOC(=O)CCC(=O)NCCCc4ccc(O)c(C5=NC(C6SCC(C(=O)O)N6C)CS5)c4)CC3)cc21 (configuration not stated)
  Activity: Active
